Reference: paper PMC9848473 (Science Advances, 2023)

How the values were obtained:
[1] = molecular target: T1, RelBs^NTD (Bacillus subtilis, UniProt O54408); test: isothermal titration calorimetry; format: binding; conditions: 25°C; pH 7.5; 10 mM MgCl2
T1 construct: gene relA; N-terminal domain region, residues 1 to 373 (HD, SYNTH and core domains), His10-SUMO tag cleaved with Ulp1, from E. coli BL21(DE3)

[2] = molecular target: T2, RelBs^NTD2:DarB2 complex (DarB:RelBs^NTD) (Bacillus subtilis, UniProt O54408); test: isothermal titration calorimetry; format: binding
T2 construct: gene relA; heterotetramer of Rel residues 1 to 373 with full-length DarB, His10-SUMO tags cleaved, complex purified by size exclusion chromatography; with CBS domain-containing protein YkuL
T2 sequence (O54408 1-373): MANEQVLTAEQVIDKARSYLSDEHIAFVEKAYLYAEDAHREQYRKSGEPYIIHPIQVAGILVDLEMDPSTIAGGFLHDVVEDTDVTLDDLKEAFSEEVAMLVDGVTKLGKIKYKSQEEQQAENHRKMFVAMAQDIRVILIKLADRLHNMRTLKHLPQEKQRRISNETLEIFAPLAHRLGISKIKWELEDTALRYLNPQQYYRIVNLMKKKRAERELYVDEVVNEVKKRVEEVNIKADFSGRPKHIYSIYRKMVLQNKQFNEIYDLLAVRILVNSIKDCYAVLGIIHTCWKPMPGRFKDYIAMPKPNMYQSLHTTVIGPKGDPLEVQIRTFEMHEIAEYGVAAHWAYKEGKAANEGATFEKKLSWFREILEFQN
T2 sequence (O31698 whole entry, further chain, the tested form may be a part): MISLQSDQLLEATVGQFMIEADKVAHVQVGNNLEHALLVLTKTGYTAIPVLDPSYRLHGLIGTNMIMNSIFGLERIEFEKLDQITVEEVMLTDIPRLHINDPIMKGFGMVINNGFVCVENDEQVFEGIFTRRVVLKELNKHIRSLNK

[3] = molecular target: T2, RelBs^NTD2:DarB2 complex (DarB:RelBs^NTD); test: stopped-flow FRET, Kd = koff/kon; format: binding; conditions: read-out: Kd^MANT-ATP
[4] = molecular target: DarB (Bacillus subtilis, UniProt O31698); test: biochemical
Sequence of DarB (O31698 whole entry): as the sequence (O31698 whole entry, further chain, the tested form may be a part) above

T1 sequence (O54408 1-373): as the sequence (O54408 1-373) above

## Nc1ncnc2c1ncn2[C@@H]1O[C@H](COP(=O)(O)CP(=O)(O)OP(=O)(O)O)[C@@H](O)[C@H]1O [APCPP, adenosine-5′-[(α,β)-methyleno]triphosphate]
[1]
  isothermal titration calorimetry: RelBs^NTD alone has low affinity to APCPP (Fig. 5G)
[2]; read-out: Kd^APCPP
  Kd: 115 µM

## CNc1ccccc1C(=O)O[C@H]1[C@@H](O)[C@H](n2cnc3c(N)ncnc32)O[C@@H]1CO[P@@](=O)(O)O[P@](=O)(O)OP(=O)(O)O (mixture of isomers) [MANT-ATP]
[3]
  Kd: 308 µM

## Nc1nc2c(ncn2[C@@H]2O[C@H](COP(=O)(O)OP(=O)(O)OP(=O)(O)O)[C@@H](OP(=O)(O)OP(=O)(O)O)[C@H]2O)c(=O)[nH]1 [pppGpp]
[2]; read-out: Kd
  Kd: 8.2 µM

## Nc1ncnc2c1ncn2[C@@H]1O[C@@H]2COP(=O)(O)O[C@H]3[C@@H](O)[C@H](n4cnc5c(N)ncnc54)O[C@@H]3COP(=O)(O)O[C@H]2[C@H]1O [c-di-AMP]
[4]
  Kd: 0.0457 µM
